Read-outs that look alike come from different tables or passages of the source.
Tests used:
[1] = cited from earlier work
SARS-CoV-2 WA1 = experiment: SARS-CoV-2 nucleoprotein ELISA in A549-hACE2-TMPRSS2 cells, WA1; type: cell-based
SARS-CoV-2 [2] = settings: cited from earlier work
SARS-CoV-2-Nluc = experiment: in vitro; settings: human
[3] = read-out: mean Cmax of plasma 1; AGM, 1 iv 10 mg/kg day 1 dose; cited from earlier work
[4] = cited from earlier work; remark: listed apart in the source
SARS-CoV-2 [5] = settings: read-out: in vitro SARS-CoV-2 antiviral EC50; Vero E6 cells and primary lung cultures; cited from earlier work
in vivo = settings: nonhuman primates, iv
in vitro [6] = settings: human, microsomes
adenosine deaminase = target: T1, adenosine deaminase (Homo sapiens, UniProt P00813); experiment: Metabolism by adenosine deaminase in vitro
T1 sequence (P00813 1-363): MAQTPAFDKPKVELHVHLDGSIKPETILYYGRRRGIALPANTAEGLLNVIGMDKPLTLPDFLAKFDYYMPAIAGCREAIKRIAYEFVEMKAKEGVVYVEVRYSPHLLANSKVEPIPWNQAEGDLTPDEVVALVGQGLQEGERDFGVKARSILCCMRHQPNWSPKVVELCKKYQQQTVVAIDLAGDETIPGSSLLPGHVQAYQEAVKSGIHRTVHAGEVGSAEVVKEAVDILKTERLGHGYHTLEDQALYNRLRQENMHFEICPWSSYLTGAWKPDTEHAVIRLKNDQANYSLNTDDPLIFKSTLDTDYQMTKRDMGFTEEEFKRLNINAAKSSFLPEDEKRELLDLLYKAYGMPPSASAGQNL

in vitro [7] = type: in vitro ADME; settings: human, Caco-2, Caco-2 efflux ratio
Caco-2 cells = experiment: in vitro; type: in vitro ADME; settings: Caco-2
[8] = Thermodynamic solubility in pH 7 buffered solution; type: physicochemical
[9] = type: physicochemical; settings: 24 h, 50 μg/mL
[10] = type: in vitro ADME; settings: 2 μM, pH 7.4
[11] = type: in vitro ADME; settings: 2 μM, pH 7.4; remark: listed apart in the source
[12] = type: in vitro ADME; settings: 2 μM, pH 7.4; remark: listed apart in the source
[13] = type: in vitro ADME; settings: 2 μM, pH 7.4; remark: listed apart in the source
[14] = test system: three human carboxyesterases; experiment: in vitro; type: in vitro ADME; settings: pH 7.4
[15] = In vivo pharmacokinetics, rat; settings: po, 6 mg/kg
[16] = in vivo
SARS-CoV-2 [17] = experiment: AGM SARS-CoV-2 antiviral efficacy study
[18] = type: in vitro ADME; settings: 2 μM, pH 7.4; remark: listed apart in the source
[19] = type: in vitro ADME; settings: 2 μM, pH 7.4; remark: listed apart in the source
[20] = type: in vitro ADME; settings: 2 μM, pH 7.4; remark: listed apart in the source
[21] = type: in vitro ADME; settings: 2 μM, pH 7.4; remark: listed apart in the source
[22] = Severe acute respiratory syndrome coronavirus 2, A549-hACE2-TMPRSS2, read-out: EC50 ± SD, WA1 (n = 2), reference run above Omicron BA.2.12.1, BA.4, BA.5

## [N-]=[N+]=N[C@]1(CO)O[C@@H](n2ccc(N)nc2=O)[C@H](O)[C@@H]1O [R1479]
[1]; human, in vivo, po
  estimated oral bioavailability: 6–18%

## CCC(CC)COC(=O)[C@H](C)N[P@](=O)(OC[C@H]1O[C@@](C#N)(c2ccc3c(N)ncnn23)[C@H](O)[C@@H]1O)Oc1ccccc1 [compound 1, Remdesivir]
SARS-CoV-2 WA1; [22]
  EC50: 160 ± 0.6 nM
SARS-CoV-2 WA1; WA1 (n = 2), reference run above Omicron BA.2
  fold change ± SD from WA1: 1.0
SARS-CoV-2 WA1; WA1 (n = 2), reference run above Omicron BA.2.12.1, BA.4, BA.5
  fold change ± SD from WA1: 1.0
SARS-CoV-2 WA1; WA1 (n = 2), reference run above Omicron BA.2.75
  fold change ± SD from WA1: 1.0
SARS-CoV-2 WA1; WA1 (n = 2), reference run above Omicron BA.4.6, BF.5
  fold change ± SD from WA1: 1.0
SARS-CoV-2 WA1; WA1 (n = 2), reference run above Omicron XBB, BQ.1.1
  fold change ± SD from WA1: 1.0
SARS-CoV-2 WA1; WA1 (n = 3), reference run above Delta
  fold change ± SD from WA1: 1.0
SARS-CoV-2 WA1; WA1 (n = 7), reference run above Omicron BA.1
  fold change ± SD from WA1: 1.0
SARS-CoV-2 [2]; high-risk nonhospitalized patients (PINETREE), 3-day iv
  reduction in hospitalizations: 87%
SARS-CoV-2 [2]; outpatient high-risk patients, 5-day oral Paxlovid, 3-day iv 1
  effectiveness in reducing hospitalization: ≥ 87%
SARS-CoV-2 [2]; patients hospitalized with COVID-19 (ACTT-1), iv
  shortening of hospitalization duration: 5 days
SARS-CoV-2-Nluc
  selectivity ratio: ≥ 300
[3]
  Cmax: 12.6 µM
[4]; NHPs
  half-life: 0.4 to 0.8 h
[4]; nonhuman primates
  oral bioavailability of the intact prodrug: < 1%
[1]; 100 mg maintenance dose in humans
  AUC0–24h of 1: 2.6 µM·h

## N#C[C@@]1(c2ccc3c(N)ncnn23)O[C@H](CO)[C@@H](O)[C@H]1O [compound 2, GS-441524]
SARS-CoV-2 WA1; [22]
  EC50: 7360 ± 3460 nM
SARS-CoV-2 [5]
  EC50: 1000 to 2000 nM
In vivo
  half-life: 2.6 to 2.7 h
In vitro [6]
  half-life: > 8 h
Adenosine deaminase
  metabolism by adenosine deaminase: weak substrates or inhibitors

## CC(C)C(=O)OC[C@H]1O[C@@](C#N)(c2ccc3c(N)ncnn23)[C@H](O)[C@@H]1O [compound 3, ((2R,3S,4R,5R)-5-(4-Aminopyrrolo[2,1-f][1,2,4]triazin-7-yl)-5-cyano-3,4-dihydroxytetrahydrofuran-2-yl)methyl Isobutyrate]
In vitro [7]
  efflux ratio at 2 h: < 3
Caco-2 cells
  fold improved forward permeability over parent 2: ~ 10 fold
[8]
  fold improved pH 7 solubility over 2: > 10 fold
  fold improved pH 7 solubility over 6: > 100 fold
[9]
  solution stability, pH 2: ≥94%
  solution stability, pH 7: ≥96%
[10]
  GI S9 stability, rat: <2/<2/<2/<2 min
[11]
  GI S9 stability, dog: <2/<2/<2/<2 min
[12]
  GI S9 stability, cynomolgus monkey: <2/<2/<2/<2 min
[13]
  GI S9 stability, human: <2/<2/<2/<2 min
[14]
  half-life at 2 μM: < 4.3 min
[15]
  AUC0–24 of 3: BLQ
SARS-CoV-2 WA1; [22]
  EC50: 1570 ± 210 nM
SARS-CoV-2 WA1; Severe acute respiratory syndrome coronavirus 2, A549-hACE2-TMPRSS2, read-out: EC50 ± SD, WA1 (n = 2), reference run above Omicron BA.4.6, BF.5
  EC50: 3960 ± 290 nM
[16]
  simulated human Cave: ≈ 4.6 μM
SARS-CoV-2 [17]; 1, 2, and 6 dpi, both dose groups
  SARS-CoV-2 infectious and RNA loads in throat swabs: significant reductions
SARS-CoV-2 [17]; 60 or 120 mg/kg oral once daily, throughout infection
  infectious viral loads in the BALF: statistically significant decreases
SARS-CoV-2 [17]; 60 or 120 mg/kg, exception 60 mg/kg at day 1 post-infection
  genomic RNA loads in BALF: significantly reduced at nearly all study time points assessed
SARS-CoV-2 [17]; after day 4 post-infection, either dose group
  infectious virus in throat and nasal swabs: no detectable infectious virus
SARS-CoV-2 [17]; study day 6, both doses
  viral RNA levels in terminal respiratory tissues: significant reductions of viral RNA levels in 5 out of the 6 respiratory tissues evaluated
Adenosine deaminase
  metabolism by adenosine deaminase: weak substrates or inhibitors

## CC(=O)OC[C@H]1O[C@@](C#N)(c2ccc3c(N)ncnn23)[C@H](O)[C@@H]1O [compound 5, ((2R,3S,4R,5R)-5-(4-Aminopyrrolo[2,1-f][1,2,4]triazin-7-yl)-5-cyano-3,4-dihydroxytetrahydrofuran-2-yl)methyl Acetate]
[10]
  GI S9 stability, rat: < 2 min

## CC(C)C(=O)OC[C@H]1O[C@@](C#N)(c2ccc3c(N)ncnn23)[C@H](OC(=O)C(C)C)[C@@H]1OC(=O)C(C)C [compound 6]
[9]
  solution stability, pH 2: ≥96%
  solution stability, pH 7: ≥98%
[10]
  GI S9 stability, rat: <2/<2/<2/<2 min
[11]
  GI S9 stability, dog: <2/<2/<2/<2 min
[12]
  GI S9 stability, cynomolgus monkey: <2/<2/<2/<2 min
[13]
  GI S9 stability, human: <2/<2/<2/<2 min

## CC(=O)OC[C@H]1O[C@@](C#N)(c2ccc3c(N)ncnn23)[C@H](OC(C)=O)[C@@H]1OC(C)=O [compound 7]
[18]
  liver S9 stability, rat: <2/<2/<2/<2 min
[19]
  liver S9 stability, dog: <2/<2/<2/<2 min
[20]
  liver S9 stability, cynomolgus monkey: <2/<2/<2/<2 min
[21]
  liver S9 stability, human: <2/<2/<2/<2 min

Reference: PMC11556372 (Journal of medicinal chemistry, 2023)
